T/C data for 17 molecules are collected here from PubChem BioAssay AID328 (DTP/NCI, 2004).

“And” between values parts separate entries of the source, which are not always exact repeats. Identical values can stand only once. Inconclusive results and toxic doses are left out.

The assay has as its system BDF1 mice, P388 leukemia ip, median survival T/C. The experiment in a line: NCI In Vivo Anticancer Drug Screen. Data for tumor model P388 Leukemia (intraperitoneal) in B6D2F1 (BDF1) mice. Particulars: endpoint: median survival time, higher = longer survival. In outline:
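Steps: implant the tumour, treat one group with compound and another with vehicle, record survival, then divide treated by control.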

The mark [1] stands for this setting: dose: 25.0 mg/kg/injection, schedule: Q01DX009 (ip), vehicle: saline.
[2] abbreviates: dose: 50.0 mg/kg/injection, schedule: Q01DX009 (ip), vehicle: saline.
Where [3] appears, read: dose: 100.0 mg/kg/injection, schedule: Q01DX009 (ip), vehicle: saline.
Where [4] appears, read: dose: 100.0 mg/kg/injection, schedule: Q04DX003 (ip), vehicle: saline.
The mark [5] stands for this setting: dose: 200.0 mg/kg/injection, schedule: Q01DX009 (ip), vehicle: saline.
Setting [6] is: dose: 200.0 mg/kg/injection, schedule: Q04DX003 (ip), vehicle: saline.
The mark [7] stands for this setting: dose: 6.25 mg/kg/injection, schedule: Q01DX009 (ip), vehicle: Klucel (hydroxypropylcellulose) (HPC).
[8] abbreviates: dose: 12.5 mg/kg/injection, schedule: Q01DX009 (ip), vehicle: Klucel (hydroxypropylcellulose) (HPC).
Setting [9] is: dose: 25.0 mg/kg/injection, schedule: Q01DX009 (ip), vehicle: Klucel (hydroxypropylcellulose) (HPC).
Where [10] appears, read: dose: 50.0 mg/kg/injection, schedule: Q01DX009 (ip), vehicle: Klucel (hydroxypropylcellulose) (HPC).
Setting [11] is: dose: 100.0 mg/kg/injection, schedule: Q01DX009 (ip), vehicle: saline with Tween-80.

Regarding `CC(=O)Nc1ccc(/C=C\c2ccnc3ccccc23)cc1`, the T/C reads like this: (dose: 33.3 mg/kg/injection, schedule: Q04DX002 (ip), vehicle: saline with Tween-80) 111 % of control; (dose: 50.0 mg/kg/injection, schedule: Q04DX002 (ip), vehicle: saline with Tween-80) 107 % of control; (dose: 75.0 mg/kg/injection, schedule: Q04DX002 (ip), vehicle: saline with Tween-80) 112 % of control.

In the case of `COc1cc2cnc3c4cc5c(cc4ccc3c2cc1OC)OCO5`, the T/C was 95 % of control (dose: 20.0 mg/kg/injection, schedule: Q01DX009 (ip), vehicle: saline with Tween-80); 105 % of control (dose: 40.0 mg/kg/injection, schedule: Q01DX009 (ip), vehicle: saline with Tween-80); 105 % of control (dose: 80.0 mg/kg/injection, schedule: Q01DX009 (ip), vehicle: saline with Tween-80); 95 % of control (dose: 120.0 mg/kg/injection, schedule: Q01DX009 (ip), vehicle: saline with Tween-80); 110 % of control (dose: 240.0 mg/kg/injection, schedule: Q01DX009 (ip), vehicle: saline with Tween-80).

Regarding `CC(=O)Nc1ccc(C(=O)O)c([N+](=O)[O-])c1`, the T/C under setting [1] was 86 % of control; the T/C under setting [2] was 92 % of control and 106 % of control; the T/C under setting [3] is 91 % of control and 100 % of control; the T/C under setting [4] is 98 % of control; the T/C under setting [5] is 106 % of control; the T/C under setting [6] is 108 % of control. The T/C by setting is: (dose: 400.0 mg/kg/injection, schedule: Q01DX009 (ip), vehicle: saline) 101 % of control; (dose: 400.0 mg/kg/injection, schedule: Q04DX003 (ip), vehicle: saline) 96 % of control.

As to `N#CSc1ccc(Nc2ccc(SC#N)cc2)cc1`, the T/C is 100 % of control under setting [7]; 100 % of control under setting [8]; 118 % of control under setting [9]; 108 % of control (dose: 35.0 mg/kg/injection, schedule: Q01DX009 (ip), vehicle: Klucel (hydroxypropylcellulose) (HPC)); 109 % of control under setting [10]; 105 % of control (dose: 53.0 mg/kg/injection, schedule: Q01DX009 (ip), vehicle: Klucel (hydroxypropylcellulose) (HPC)). Further, the T/C reads like this: (dose: 80.0 mg/kg/injection, schedule: Q01DX009 (ip), vehicle: Klucel (hydroxypropylcellulose) (HPC)) 109 % of control and 110 % of control; (dose: 120.0 mg/kg/injection, schedule: Q01DX009 (ip), vehicle: Klucel (hydroxypropylcellulose) (HPC)) 120 % of control and 122 % of control.

As to `CCN(CC)c1nc(NC2CCCCC2)c2nc(N(CC)CC)nc(NC3CCCCC3)c2n1`, the T/C was 101 % of control (dose: 3.13 mg/kg/injection, schedule: Q01DX009 (ip), vehicle: Klucel (hydroxypropylcellulose) (HPC)); 110 % of control under setting [7]; 99 % of control under setting [8]; 101 % of control under setting [9].

As for `CCOC(=O)/C(C#N)=C/N=c1ccccn1C`, the T/C is, setting by setting: (dose: 6.25 mg/kg/injection, schedule: Q04DX002 (ip), vehicle: saline with Tween-80) 101 % of control; (dose: 12.5 mg/kg/injection, schedule: Q04DX002 (ip), vehicle: saline with Tween-80) 101 % of control; (dose: 25.0 mg/kg/injection, schedule: Q04DX002 (ip), vehicle: saline with Tween-80) 101 % of control.

In the case of `O=C(N1CCCC1)C(F)(F)C(F)(F)C(F)(F)F`, the T/C runs as follows: (dose: 50.0 mg/kg/injection, schedule: Q01DX009 (ip), vehicle: saline with Tween-80) 90 % of control; under setting [11], 99 % of control.

With `Cc1sc(C)c2c1C[Se]Cc1c(C)sc(C)c1C[Se]C2`, the T/C runs as follows: (dose: 12.5 mg/kg/injection, schedule: Q01DX001 (ip), vehicle: saline with Tween-80) 95 % of control; (dose: 25.0 mg/kg/injection, schedule: Q01DX001 (ip), vehicle: saline with Tween-80) 107 % of control; (dose: 50.0 mg/kg/injection, schedule: Q01DX001 (ip), vehicle: saline with Tween-80) 118 % of control.

With `CCOC(=O)C(=Cc1c[nH]c2ccccc12)C(=O)OCC`, the T/C runs as follows: (dose: 45.0 mg/kg/injection, schedule: Q04DX003 (ip), vehicle: saline with Tween-80) 109 % of control; (dose: 65.0 mg/kg/injection, schedule: Q04DX003 (ip), vehicle: saline with Tween-80) 113 % of control; (dose: 100.0 mg/kg/injection, schedule: Q04DX003 (ip), vehicle: saline with Tween-80) 100 % of control and 105 % of control; (dose: 150.0 mg/kg/injection, schedule: Q04DX003 (ip), vehicle: saline with Tween-80) 109 % of control; (dose: 200.0 mg/kg/injection, schedule: Q04DX003 (ip), vehicle: saline with Tween-80) 100 % of control and 118 % of control; (dose: 400.0 mg/kg/injection, schedule: Q04DX003 (ip), vehicle: saline with Tween-80) 90 % of control and 109 % of control.

As for `O=C(O)CCc1cccnc1`, under setting [11], the T/C was 104 % of control.

Regarding `O=C1C=C(Nc2ccccc2)CCC1`, the T/C was 99 % of control under setting [2], 100 % of control under setting [3] and 103 % of control under setting [5].

As for `CCOC(=O)C(C(=O)OCC)=C(C#N)c1c[nH]c2ccccc12`, the T/C is, setting by setting: under setting [8], 90 % of control; under setting [9], 104 % of control; under setting [10], 104 % of control; (dose: 100.0 mg/kg/injection, schedule: Q04DX003 (ip), vehicle: Klucel (hydroxypropylcellulose) (HPC)) 95 % of control; (dose: 200.0 mg/kg/injection, schedule: Q04DX003 (ip), vehicle: Klucel (hydroxypropylcellulose) (HPC)) 100 % of control; (dose: 400.0 mg/kg/injection, schedule: Q04DX003 (ip), vehicle: Klucel (hydroxypropylcellulose) (HPC)) 109 % of control.

Regarding `O=S(=O)(CI)OCCCl`, the T/C (dose: 50.0 mg/kg/injection, schedule: Q01DX005 (ip), vehicle: Klucel (hydroxypropylcellulose) (HPC)) is 93 % of control and the T/C (dose: 100.0 mg/kg/injection, schedule: Q01DX005 (ip), vehicle: Klucel (hydroxypropylcellulose) (HPC)) was 110 % of control.

Take `CCOC1OCN(C)CC1(C)C` (centres undefined): the T/C is, setting by setting: (dose: 12.5 mg/kg/injection, schedule: Q01DX009 (ip), vehicle: saline with Tween-80) 115 % of control; (dose: 25.0 mg/kg/injection, schedule: Q01DX009 (ip), vehicle: saline with Tween-80) 120 % of control; (dose: 66.0 mg/kg/injection, schedule: Q01DX009 (ip), vehicle: saline) 115 % of control; under setting [3], 119 % of control; (dose: 150.0 mg/kg/injection, schedule: Q01DX009 (ip), vehicle: saline) 154 % of control.

`O=C(/C=C/c1ccc2c(c1)OCO2)/C=C/c1ccc2c(c1)OCO2`: the T/C was 101 % of control (dose: 12.5 mg/kg/injection, schedule: Q01DX009 (ip), vehicle: saline); 105 % of control (dose: 12.5 mg/kg/injection, schedule: Q04DX003 (ip), vehicle: saline); 96 % of control under setting [1]; 112 % of control (dose: 25.0 mg/kg/injection, schedule: Q04DX003 (ip), vehicle: saline); 114 % of control (dose: 50.0 mg/kg/injection, schedule: Q04DX003 (ip), vehicle: saline); 114 % of control under setting [4]. Also, the T/C runs as follows: under setting [5], 92 % of control; under setting [6], 114 % of control.

Take `Nc1ccc(O)cc1`: the T/C runs as follows: (dose: 264.0 mg/kg/injection, schedule: Q01DX009 (ip), vehicle: saline sonified) 109 % of control; (dose: 400.0 mg/kg/injection, schedule: Q01DX009 (ip), vehicle: saline sonified) 90 % of control.

Consider `O=C1C(C2OC2c2ccccc2)CCCC1C1OC1c1ccccc1` (centres undefined), for which the T/C by setting is: (dose: 100.0 mg/kg/injection, schedule: Q04DX003 (ip), vehicle: saline sonified) 100 % of control; (dose: 200.0 mg/kg/injection, schedule: Q01DX009 (ip), vehicle: saline with Tween-80) 91 % of control; (dose: 200.0 mg/kg/injection, schedule: Q04DX003 (ip), vehicle: saline sonified) 95 % of control; (dose: 400.0 mg/kg/injection, schedule: Q01DX009 (ip), vehicle: saline with Tween-80) 87 % of control; (dose: 400.0 mg/kg/injection, schedule: Q04DX003 (ip), vehicle: saline sonified) 95 % of control.
